Measured values as given in patent US12679878B2, “CRF2 receptor agonists and their use in therapy” (SANOFI, priority 2020, dated 2026).
Starred links: 1 amine or outer side, 2 acyl side, 3 side chain; linkers in the order of their positions; H or OH if unused. Non-standard residues stand in square brackets, D forms with d. Residues, ends and D or L forms follow the SMILES beside them. Groups on a side chain read outwards from the residue. *: point of attachment. γGlu = O=C(O)[C@H](CCC(=O)[*:2])N[*:1]; Palmitoyl = CCCCCCCCCCCCCCCC(=O)*; Aib = CC(C)(N)C(=O)O

How the values were obtained:
human CRF2α receptor = molecular target: T1, human CRF2α receptor (Homo sapiens, UniProt Q13324); experiment: cAMP agonism at human CRF2α receptor in TeloHEAC cells, FA modified peptides (Example 19.9); format: cell-based; settings: 0% HSA, relative to urocortin 2
T1 construct: expressed in transfected cells; host or cells: TeloHEAC
T1 sequence (Q13324 1-411): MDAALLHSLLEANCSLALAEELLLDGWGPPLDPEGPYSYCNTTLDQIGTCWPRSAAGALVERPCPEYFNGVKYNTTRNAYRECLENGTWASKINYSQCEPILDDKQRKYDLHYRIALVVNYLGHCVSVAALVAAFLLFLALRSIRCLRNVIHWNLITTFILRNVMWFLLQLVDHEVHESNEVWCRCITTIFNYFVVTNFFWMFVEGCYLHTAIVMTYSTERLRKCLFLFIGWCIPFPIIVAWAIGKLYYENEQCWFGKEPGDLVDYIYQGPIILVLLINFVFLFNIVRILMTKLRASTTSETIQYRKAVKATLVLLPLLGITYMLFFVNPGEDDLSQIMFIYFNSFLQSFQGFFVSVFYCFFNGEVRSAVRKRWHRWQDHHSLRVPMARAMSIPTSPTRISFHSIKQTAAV
Procedure, shortened: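 Efficacy and EC50 are referenced to 100 nM urocortin 2 as 100%, with cAMP measured as the 665/620 nm HTRF ratio after 1 h at room temperature. Compounds (0.5 mM DMSO stock, 16 twofold dilutions) acted 30 min at 37 °C on CRF2α-expressing TeloHEAC cells, buffer containing IBMX and 0% or 0.2% HSA.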

CRF1R receptor = molecular target: T2, CRF1R receptor (Homo sapiens, UniProt P34998); experiment: cAMP activity at anti-target CRF1R, CHO-K1 cell line clone 2 (Example 19.10); format: cell-based; settings: ratio of CRF1 EC50 to CRF2 EC50
T2 construct: host or cells: CHO-K1 clone 2
T2 sequence (P34998 24-415): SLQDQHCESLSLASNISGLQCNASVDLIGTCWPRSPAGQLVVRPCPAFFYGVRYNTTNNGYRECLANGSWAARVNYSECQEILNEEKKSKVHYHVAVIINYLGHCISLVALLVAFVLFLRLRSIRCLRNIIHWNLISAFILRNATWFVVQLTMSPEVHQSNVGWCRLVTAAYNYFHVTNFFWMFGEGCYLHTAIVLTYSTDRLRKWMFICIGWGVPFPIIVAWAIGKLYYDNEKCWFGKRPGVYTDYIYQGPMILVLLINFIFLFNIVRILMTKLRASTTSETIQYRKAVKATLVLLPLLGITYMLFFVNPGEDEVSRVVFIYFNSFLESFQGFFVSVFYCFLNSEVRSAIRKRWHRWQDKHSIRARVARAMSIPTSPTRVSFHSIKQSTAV
Procedure, shortened: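 The cAMP read-out used the same protocol as the previous assay, except that Sauvagine at 100 nM set the 100% activation control. Cells were CHO-K1 clone 2 overexpressing CRF1R, cultured in F12 medium with 10% FBS and G418 and stored frozen until use.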

Row | Structure (SMILES) | EC50 (human CRF2α receptor) | CRF1/CRF2 ratio (CRF1R receptor)
1 | CCCCCCCCCCCCCCCC(=O)N[C@@H](CCC(=O)NCCCC[C@H](NC(=O)[C@H](CC(C)C)NC(=O)[C@H](CCCCN)NC(=O)[C@@H](NC(=O)[C@@H]1CCCN1C(=O)[C@H](NC(=O)[C@H](CC(=O)O)NC(=O)[C@H](CC(C)C)NC(=O)[C@H](CO)NC(=O)[C@H](CC(C)C)NC(=O)[C@@H](NC(=O)[C@@H](N)[C@@H](C)CC)C(C)C)C(C)C)[C@@H](C)CC)C(=O)N[C@@H](CCC(N)=O)C(=O)N[C@H](C(=O)N[C@@H](CC(C)C)C(=O)N[C@@H](CC(C)C)C(=O)N[C@@H](CCCCN)C(=O)N[C@@H](CCC(N)=O)C(=O)N[C@@H](CCC(=O)O)C(=O)N[C@@H](CCCNC(=N)N)C(=O)N[C@@H](CCC(N)=O)C(=O)N[C@@H](CCCCN)C(=O)NC(C)(C)C(=O)N[C@@H](CCC(N)=O)C(=O)N[C@@H](CCCNC(=N)N)C(=O)N[C@@H](CCC(=O)O)C(=O)N[C@@H](CCC(N)=O)C(=O)N[C@@H](C)C(=O)N[C@@H](CCC(=O)O)C(=O)N[C@@H](CCCCN)C(=O)N[C@@H](CC(N)=O)C(=O)N[C@@H](CCCCN)C(=O)N[C@@H](CCC(N)=O)C(=O)N[C@H](C(=O)N[C@@H](CC(C)C)C(=O)N[C@@H](C)C(=O)N[C@@H](CCC(N)=O)C(=O)N[C@H](C(N)=O)C(C)C)[C@@H](C)CC)[C@@H](C)CC)C(=O)O [compound 204] (H-IVLSLD[dV]PIKLK([γGlu-Palmitoyl])QILLKQERQK[Aib]QREQAEKNKQILAQV-NH2) | 0.14 nM | 3
2 | CCCCCCCCCCCCCCCC(=O)N[C@@H](CCC(=O)NCCCC[C@H](NC(=O)[C@H](CC(C)C)NC(=O)CNC(=O)[C@@H](NC(=O)[C@@H]1CCCN1C(=O)[C@H](NC(=O)[C@H](CC(=O)O)NC(=O)[C@H](CC(C)C)NC(=O)[C@H](CO)NC(=O)[C@H](CC(C)C)NC(=O)[C@@H](NC(=O)[C@@H](N)[C@@H](C)CC)C(C)C)C(C)C)[C@@H](C)CC)C(=O)N[C@@H](CCC(N)=O)C(=O)N[C@H](C(=O)N[C@@H](CC(C)C)C(=O)N[C@@H](CC(C)C)C(=O)N[C@@H](CCCCN)C(=O)N[C@@H](CCC(N)=O)C(=O)N[C@@H](CCC(=O)O)C(=O)N[C@@H](CCCNC(=N)N)C(=O)N[C@@H](CCC(N)=O)C(=O)N[C@@H](CCCCN)C(=O)N[C@@H](CCCCN)C(=O)NC(C)(C)C(=O)N[C@@H](CCCNC(=N)N)C(=O)N[C@@H](CCC(=O)O)C(=O)N[C@@H](CCC(N)=O)C(=O)N[C@@H](C)C(=O)N[C@@H](CCC(=O)O)C(=O)N[C@H](C(=O)N[C@@H](CC(N)=O)C(=O)N[C@@H](CCCCN)C(=O)N[C@@H](CCCNC(=N)N)C(=O)N[C@H](C(=O)N[C@@H](CC(C)C)C(=O)N[C@@H](CCC(=O)O)C(=O)N[C@@H](CCCNC(=N)N)C(=O)N[C@H](C(N)=O)C(C)C)[C@@H](C)CC)[C@@H](C)O)[C@@H](C)CC)C(=O)O [compound 207] (H-IVLSLD[dV]PIGLK([γGlu-Palmitoyl])QILLKQERQKK[Aib]REQAETNKRILERV-NH2; N-terminus assumed) | 0.68 nM | 6
3 | CCCCCCCCCCCCCCCC(=O)N[C@@H](CCC(=O)NCCCC[C@H](NC(=O)[C@H](CC(C)C)NC(=O)[C@H](CCCCN)NC(=O)[C@@H](NC(=O)[C@@H]1CCCN1C(=O)[C@H](NC(=O)[C@H](CC(=O)O)NC(=O)[C@H](CC(C)C)NC(=O)[C@H](CO)NC(=O)[C@H](CC(C)C)NC(=O)[C@@H](NC(=O)[C@@H](N)[C@@H](C)CC)C(C)C)C(C)C)[C@@H](C)CC)C(=O)N[C@@H](CCC(N)=O)C(=O)N[C@H](C(=O)N[C@@H](CC(C)C)C(=O)N[C@@H](CC(C)C)C(=O)N[C@@H](CCCCN)C(=O)N[C@@H](CCC(N)=O)C(=O)N[C@@H](CCC(=O)O)C(=O)N[C@@H](CCCNC(=N)N)C(=O)N[C@@H](CCC(N)=O)C(=O)N[C@@H](CCCCN)C(=O)NC(C)(C)C(=O)N[C@@H](CCC(N)=O)C(=O)N[C@@H](CCCNC(=N)N)C(=O)N[C@@H](CCC(N)=O)C(=O)N[C@@H](CCC(N)=O)C(=O)N[C@@H](C)C(=O)N[C@@H](CCC(=O)O)C(=O)N[C@@H](CCCCN)C(=O)N[C@@H](CC(N)=O)C(=O)N[C@@H](CCCCN)C(=O)N[C@@H](CCC(N)=O)C(=O)N[C@H](C(=O)N[C@@H](CC(C)C)C(=O)N[C@@H](C)C(=O)N[C@@H](CCC(N)=O)C(=O)N[C@H](C(N)=O)C(C)C)[C@@H](C)CC)[C@@H](C)CC)C(=O)O [compound 208] (H-IVLSLD[dV]PIKLK([γGlu-Palmitoyl])QILLKQERQK[Aib]QRQQAEKNKQILAQV-NH2; N-terminus assumed) | 0.9 nM | 2
4 | CCCCCCCCCCCCCCCC(=O)N[C@@H](CCC(=O)NCCCC[C@H](NC(=O)[C@H](CC(C)C)NC(=O)[C@H](CCCCN)NC(=O)[C@@H](NC(=O)[C@@H]1CCCN1C(=O)[C@H](NC(=O)[C@H](CC(=O)O)NC(=O)[C@H](CC(C)C)NC(=O)[C@H](CO)NC(=O)[C@H](CC(C)C)NC(=O)[C@@H](NC(=O)[C@@H](N)[C@@H](C)CC)C(C)C)C(C)C)[C@@H](C)CC)C(=O)N[C@@H](CCC(N)=O)C(=O)N[C@H](C(=O)N[C@@H](CC(C)C)C(=O)N[C@@H](CC(C)C)C(=O)N[C@@H](CCCCN)C(=O)N[C@@H](CCC(N)=O)C(=O)N[C@@H](CCC(=O)O)C(=O)N[C@@H](CCCNC(=N)N)C(=O)N[C@@H](CCC(N)=O)C(=O)N[C@@H](CCCCN)C(=O)N[C@@H](CCCCN)C(=O)NC(C)(C)C(=O)N[C@@H](CCCNC(=N)N)C(=O)N[C@@H](CCC(N)=O)C(=O)N[C@@H](CCCCN)C(=O)N[C@@H](C)C(=O)N[C@@H](CCC(=O)O)C(=O)N[C@@H](CCCCN)C(=O)N[C@@H](CC(N)=O)C(=O)N[C@@H](CCCCN)C(=O)N[C@@H](CCC(N)=O)C(=O)N[C@H](C(=O)N[C@@H](CC(C)C)C(=O)N[C@@H](C)C(=O)N[C@@H](CCC(N)=O)C(=O)N[C@H](C(N)=O)C(C)C)[C@@H](C)CC)[C@@H](C)CC)C(=O)O [compound 209] (H-IVLSLD[dV]PIKLK([γGlu-Palmitoyl])QILLKQERQKK[Aib]RQKAEKNKQILAQV-NH2; N-terminus assumed) | 8.62 nM | 3
5 | CCCCCCCCCCCCCCCC(=O)N[C@@H](CCC(=O)NCCCC[C@H](NC(=O)[C@H](CC(C)C)NC(=O)[C@H](CCCCN)NC(=O)[C@@H](NC(=O)[C@@H]1CCCN1C(=O)[C@H](NC(=O)[C@H](CC(=O)O)NC(=O)[C@H](CC(C)C)NC(=O)[C@H](CO)NC(=O)[C@H](CC(C)C)NC(=O)[C@@H](NC(=O)[C@@H](N)[C@@H](C)CC)C(C)C)C(C)C)[C@@H](C)CC)C(=O)N[C@@H](CCC(N)=O)C(=O)N[C@H](C(=O)N[C@@H](CC(C)C)C(=O)N[C@@H](CC(C)C)C(=O)N[C@@H](CCCCN)C(=O)N[C@@H](CCC(N)=O)C(=O)N[C@@H](CCC(=O)O)C(=O)N[C@@H](CCCNC(=N)N)C(=O)N[C@@H](CCC(N)=O)C(=O)N[C@@H](CCCCN)C(=O)N[C@@H](CCCCN)C(=O)N[C@@H](CCC(N)=O)C(=O)N[C@@H](CCCNC(=N)N)C(=O)N[C@@H](CCC(=O)O)C(=O)N[C@@H](CCC(N)=O)C(=O)N[C@@H](C)C(=O)N[C@@H](CCC(=O)O)C(=O)N[C@@H](CCCCN)C(=O)N[C@@H](CC(N)=O)C(=O)N[C@@H](CCCCN)C(=O)N[C@@H](CCC(N)=O)C(=O)N[C@H](C(=O)N[C@@H](CC(C)C)C(=O)N[C@@H](CCC(=O)O)C(=O)N[C@@H](CCC(N)=O)C(=O)N[C@H](C(N)=O)C(C)C)[C@@H](C)CC)[C@@H](C)CC)C(=O)O [compound 212] (H-IVLSLD[dV]PIKLK([γGlu-Palmitoyl])QILLKQERQKKQREQAEKNKQILEQV-NH2; N-terminus assumed) | 1.23 nM | 1
